Source: patent US8263642B2, “Antimicrobial compounds and methods of use thereof” (Vanderbilt University, priority 2008, dated 2012)

How the values were obtained:
[1] = test system: Stern; assay: Heme adaptation, Stern test; format: cell-based
Experimental: (§1) Methods for obtaining the data shown in Tables 1 and 2 are described herein.
(§2) With reference to Table 1, “Luminescence” refers to the raw luminescence value obtained in a luminomter. “Control (82.5 nm)” refers to the luminescence value obtained from heme at 82.5 nM as a positive control in the same plate as the experimental. “% lum” is the percentage of luminescence induced by the compound as compared to the heme control in the same plate. […] All of these assays are described in the application. […] “N/T” indicates the test was not performed.

[2] = test system: response regulator HssR; assay: HssR dependence, Stern test; format: cell-based
Experimental: as §1, §2

[3] = Solubility of heme in solution; format: physicochemical; conditions: concentrations above this are insoluble
[4] = test system: HssRS-dependent hrtAB expression; assay: Luminescence-based assay to monitor HssRS-dependent hrtAB expression (phrtABlux reporter), Newman; format: cell-based, Staphylococcus aureus; conditions: for Luminescence: raw luminescence value obtained in a luminometer, Newman
Method in brief: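 S. aureus Newman wild type or ΔhssR carrying a hrtAB promoter–luxCDABE reporter (phrtABlux), grown in TSB with 10 μg/ml chloramphenicol at 37 °C. Light output read against 82.5 nM heme as the in-plate positive control. Activity given as % of heme-induced luminescence.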

[5] = test system: hrtAB-driven expression of the xylE reporter gene; assay: XylE reporter assay (hrtAB promoter-xylE), Newman; format: cell-based, Staphylococcus aureus; conditions: for XylE (0.05): level of XylE induction at 0.05 uM of the compound; for XylE (0.5): level of XylE induction at 0.5 uM of the compound; for XylE (5.0): level of XylE induction at 5.0 uM of the compound; for XylE (50.0): level of XylE induction at 50.0 uM of the compound
Method in brief: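 S. aureus carrying hrtAB promoter-xylE fusion in pOS1 grown O/N at 37° C in TSB with chloramphenicol, lysed with lysostaphin. Lysate XylE activity read as 2-hydroxymuconic semialdehyde formation from 0.2 mM pyrocatechol (A375, every minute for 30 minutes), normalised to BCA protein; unit = 1 nmol/min/mg at 30° C.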

[6] = test system: response regulator HssR; assay: HssR dependence of XylE inducing activity, Newman; format: cell-based, Staphylococcus aureus; conditions: whether XylE inducing activity requires HssR
Experimental: With reference to Table 1, “Luminescence” refers to the raw luminescence value obtained in a luminomter. “Control (82.5 nm)” refers to the luminescence value obtained from heme at 82.5 nM as a positive control in the same plate as the experimental. “% lum” is the percentage of luminescence induced by the compound as compared to the heme control in the same plate. […] All of these assays are described in the application. […] “N/T” indicates the test was not performed. […]
S. aureus strains harboring the appropriate reporter construct were inoculated into 500 μl of TSB containing 10 μg/ml chloramphenicol in 1.5 ml tubes. Cultures were grown O/N at 37° C. with shaking. Bacteria were pelleted by centrifugation and spent medium was aspirated. The pellet was washed once with 500 μl of 20 mM potassium phosphate, pH 7.6, and resuspended in 150 μl of 100 mM potassium phosphate buffer, pH 8.0, 10% (v/v) acetone, 25 μg/ml lysostaphin. After 20 minute incubation at 37° C. and 5 minute incubation on ice, samples were centrifuged at 20,000 g for 30 minutes at 4° C. 1-10 μl of supernatant was added to a 96-well plate and 200 μl of 100 mM potassium phosphate, pH 8.0, 0.2 mM pyrocatechol was added to each well. Formation of 2-hydroxymuconic semialdehyde was tracked by measuring the absorbance at 375 nm every minute for 30 minutes on a Varian MP 50 microplate reader. Protein concentration in samples was determined by BCA (Pierce). One unit of specific activity of XylE in a sample is defined as the formation of 1 nmol of 2-hydroxymuconic semialdehyde per minute per milligram of cellular protein at 30° C. (Chien, Y., Manna, A. C., Projan, S. J., and Cheung, A. L. 1999, “SarA, a global regulator of virulence determinants in Staphylococcus aureus, binds to a conserved motif essential for sar-dependent gene regulation. J. Biol. Chem. 274, 37169-37176).

CC(NC(=O)C1(c2ccccc2)CCCC1)C1COc2ccccc2O1 (centres unmarked) [drawing 132]
Heme Adapt [1]: +
HssR Dep [2]: +

C=CC1=C(C)c2cc3[n-]c(cc4[n-]c(cc5nc(cc1n2)C(C)=C5C=C)c(C)c4CCC(=O)O)c(CCC(=O)O)c3C.[Fe+2] [heme, reference compound]
soluble concentration in solution [3]: ≤ 30 µM
light production on solid medium ([4]; S. aureus containing phrtABlux, solid medium without or with 4 μM heme): generated light exclusively upon heme exposure
luminescence in liquid media ([4]; S. aureus wildtype containing phrtABlux, liquid media with or without heme): robust luminescence
increase in luminescence ([4]; exposure of S. aureus to 3 μM heme, preliminary results): 100 fold
increase in luminescence over negative control strains ([4]; heme-exposed wildtype harboring phrtABlux vs wildtype plux and ΔhssR phrtABlux, preliminary results): 100 fold

COc1ccccc1NC1=C/C(=N\S(=O)(=O)c2ccc(Br)cc2)c2ccccc2C1=O [drawing 136]
Heme Adapt [1]: +
HssR Dep [2]: +

Cc1ccc(NS(=O)(=O)c2ccc3c(c2)Cc2cc(S(=O)(=O)Nc4ccc(C)cc4)ccc2-3)cc1 [drawing 135]
Heme Adapt [1]: +
HssR Dep [2]: +

O=C(N/N=C/c1ccc(-c2ccc(Br)cc2)o1)C1COc2ccccc2O1 (centres unmarked) [drawing 133]
Heme Adapt [1]: +
HssR Dep [2]: +

Oc1c(-c2cc(-c3ccco3)[nH]n2)ccc2ccccc12 [drawing 131]
Heme Adapt [1]: −
HssR Dep [2]: −

O=C(N/N=C/c1ccc(-c2cccc(C(F)(F)F)c2)o1)C1COc2ccccc2O1 (centres unmarked) [drawing 134]
Heme Adapt [1]: −
HssR Dep [2]: −

Brc1ccc(-c2nc(NCc3ccccc3)c3ccccc3n2)cc1
XylE (0.05) [5]: 1
XylE (0.5) [5]: 1
XylE (5.0) [5]: 0.5
XylE (50.0) [5]: 0.2
Luminescence [4]: 4302
HssR Dep [6]: −

O=C(O)C1CSC(c2cccnc2)=N1 (centres unmarked)
XylE (0.05) [5]: 1
XylE (0.5) [5]: 1
XylE (5.0) [5]: 1
XylE (50.0) [5]: 3
Luminescence [4]: 2360
HssR Dep [6]: −
